“Also recorded” adds a separate entry of the source.
Legend:
[1] = test system: mice after myocardial infarction surgery; test: Echocardiography 3 weeks after myocardial infarction surgery; type: in vivo, mouse; conditions: for LV internal diameter (LVID) during diastole / LV posterior wall (LVPW) wall thickness in diastole: between groups (KN-93 1 and 10, KN-92 30 μmol/Kg, AC3-I transgenic, WT); for cardiac hypertrophy / myocardial contractility (positive inotropic effect): FIG. 7; for Left ventricular (LV) fractional shortening: unanesthetized mice, vs WT or KN-92 30 μmol/Kg
Description: FIGS. 7 A-D. CaMKII inhibition improves contractile function after myocardial infarction surgery. […] P<0.001 by ANOVA and asterisks indicate a significant difference compared to WT using a Bonferroni-corrected t test. B. LV internal diameter (LVID) during diastole is a marker of LV chamber dilation. […] C. LV posterior wall (LVPW) wall thickness in diastole is a measure of LV hypertrophy of the non-infarcted wall.
Myocardial infarction surgery: Surgery is routinely performed at the Vanderbilt mouse physiology core laboratory and is essentially identical to other published reports^18 8.^14 In brief, mice are anesthetized (pentobarbital 33 μg/g and ketamine 33 μg/g, i.p.) and placed on a rodent respirator (tidal vol. 0.5 ml, rate 120 breaths/min), the chest opened with a left parasternal thoracotomy, and the region of the mid-left anterior descending artery ligated with 8-0 suture. The chest is closed (running 5-0 suture), and the animal weaned from the respirator. Wild-type mice typically develop heart failure, as assessed by increased lung wet:dry weights. Sham operations omit the ligation step. Approximately 75% of animals survive surgery with a successfully infarcted anterior wall.

protein kinase C = conditions: cited from earlier work
transgenic mice = test: Baseline echocardiography of transgenic mice; type: in vivo, mouse
CaMKII isoforms = conditions: cited from earlier work
CaMKII [2] = test: CaMKII inhibitory potency against a synthetic CaMKII substrate; type: biochemical; conditions: 'previous studies'
CAN+ transgenic mice = test: Echocardiography in calcineurin (CAN+) transgenic dilated cardiomyopathy model; conditions: AC3-I+/CAN+ vs CAN+ mice
protein kinase A = conditions: cited from earlier work
CaMKII [3] = test: CaMKII activity assay in heart homogenate with syntide 2; type: in vivo, mouse
Description: CaMKII activity assays: CaMKII activity was assayed in AC3-I mice and littermate controls from whole heart (ventricular) homogenate with syntide 2-a synthetic substrate with ˜50 fold selectivity for CaMKII over CaMKIV,^9 using our previously published methods.^1

[4] = diastole or systole, AC3-I transgenic vs WT littermates

For `COc1ccc(S(=O)(=O)Nc2ccccc2CN(C)C/C=C/c2ccc(Cl)cc2)cc1` [KN-92], the “LV internal diameter (LVID) during diastole” value (from here on “LV internal diameter”) ([1]; 3 weeks after MI surgery) was “No significant differences” and the “LV posterior wall (LVPW) wall thickness in diastole” value (shortened to “LV posterior wall”) ([1]; 3 weeks after MI surgery) was “No significant differences”.
For `COc1ccc(S(=O)(=O)N(CCO)c2ccccc2CN(C)C/C=C/c2ccc(Cl)cc2)cc1` [KN-93], the “LV internal diameter” value ([1]; 3 weeks after MI surgery) was “No significant differences”, the “LV posterior wall” value ([1]; 3 weeks after MI surgery) was “No significant differences” and the cardiac hypertrophy [1] was “without affecting”. For the same molecule, the “myocardial contractility (positive inotropic effect)” value [1] was “increase”, the “Left ventricular (LV) fractional shortening” value ([1]; KN-93 1 μmol/Kg body weight daily, 3 weeks after MI surgery) was “significantly greater” and the “Left ventricular (LV) fractional shortening” value ([1]; KN-93 10 μmol/Kg body weight daily, 3 weeks after MI surgery) was “significantly greater”.
For KKALHRQEAVDCL [AC3-I], the “activity against protein kinase C” value (protein kinase C) is given as “virtually devoid of activity”, the “Left ventricular fractional shortening” value (transgenic mice; baseline, AC3-I transgenic vs WT littermates) is given as “not different” and the “Echocardiographic left ventricular dimensions” value (transgenic mice; [4]) is given as “not significantly different”. The Interventricular septal thickness (transgenic mice; [4]) was “not different”, the “inhibition of CaMKII isoforms” value (CaMKII isoforms) was “inhibits all CaMKII isoforms” and the IC50 (CaMKII [2]) was 500 nM. The heart rates (CAN+ transgenic mice) was “no significant differences”, the Heart rate ([1]; 3 weeks after MI surgery, AC3-I transgenic compared to all other groups) was “significantly slower” and the “LV internal diameter” value ([1]; 3 weeks after MI surgery) was “No significant differences”. For the same molecule, the “LV posterior wall” value ([1]; 3 weeks after MI surgery) was “No significant differences”, the cardiac hypertrophy [1] was “without affecting” and the “myocardial contractility (positive inotropic effect)” value [1] was “increase”. For the same molecule, the “Left ventricular fractional shortening” value ([1]; transgenically targeted AC3-I expression, after MI surgery, vs WT littermates) was “significantly better; also recorded: significantly greater”, the “activity against protein kinase A” value (protein kinase A) was “virtually devoid of activity” and the “total CaMKII activity” value (CaMKII [3]; ventricular homogenates, compared to AC3-C mice and WT littermates) was “significantly reduced”. The “cardiac CaMKII activity” value (CaMKII [3]; whole heart homogenates, AC3-I transgenic mice vs WT littermates) was “significantly reduced”.
With KLKALHAQERVDCL [AC3-C] the “Left ventricular fractional shortening” value (transgenic mice; AC3-C transgenic compared to AC3-I mice) was “significantly depressed”, the “left ventricular internal diameter (LVID) in diastole” value (transgenic mice; AC3-C transgenic vs AC3-I mice) was “significantly greater” and the “total CaMKII activity” value (CaMKII [3]; AC3-C transgenic mice, FIG. 6) was “high”.

Source: patent US7632815B2, “Use of calmodulin kinase II inhibitors to treat myocardial dysfunction in structural heart disease” (Vanderbilt University, priority 2001, dated 2009)
